Reference: EP0719251B1, “BICYCLO (2.2.2) OCTANE DERIVATIVES CHOLECYSTOKININ AND/OR GASTRIN ANTAGONISTS” (JAMES BLACK FOUNDATION LIMITED, priority 1993, dated 1995)

Key:
CCKB receptor = target: T1, CCKB receptor (Mus musculus, UniProt P56481); assay: radioligand binding assay at the CCKB receptor in mouse cortical membranes; settings: [125I]-CCK8S 200pM, 150 min at 21 ± 3°C, read-out: CCKB pKi (converted)
T1 construct: The whole brains from male mice (CD1 22-25g; Charles River) were removed; from tissue; host or cells: cerebral cortex membranes of male CD1 mice
T1 sequence (P56481 1-453): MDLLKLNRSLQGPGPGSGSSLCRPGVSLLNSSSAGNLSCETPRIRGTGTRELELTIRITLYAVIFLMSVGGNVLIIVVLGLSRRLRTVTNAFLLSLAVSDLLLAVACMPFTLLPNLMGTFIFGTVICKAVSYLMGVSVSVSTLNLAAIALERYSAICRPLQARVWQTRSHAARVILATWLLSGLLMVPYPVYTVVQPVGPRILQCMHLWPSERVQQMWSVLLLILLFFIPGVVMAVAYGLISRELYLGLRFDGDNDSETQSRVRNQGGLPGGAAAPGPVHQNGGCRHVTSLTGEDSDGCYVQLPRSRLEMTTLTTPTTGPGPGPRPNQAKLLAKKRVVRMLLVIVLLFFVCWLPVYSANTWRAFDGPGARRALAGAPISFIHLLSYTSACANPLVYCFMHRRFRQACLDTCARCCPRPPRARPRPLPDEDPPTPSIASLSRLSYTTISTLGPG
Procedure, shortened: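 Cortical membranes from male CD1 mice prepared in HEPES buffer (pH 7.2, with NaCl, KCl, MgCl2, EDTA, bacitracin) at 2 mg/ml wet weight. Binding stopped by rapid filtration over GF/B filters with ice-cold Tris-HCl washes. Bound radioactivity counted in a gamma-counter.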

gastrin = target: T2, gastrin (Rattus norvegicus, UniProt P30553); assay: gastrin antagonist activity in an immature rat stomach assay; settings: isolated immature rat stomach, cumulative pentagastrin dose-response curves, acid secretion; read-out: Gastrin pKB (converted)
T2 construct: The stomach was excised and flushed with ca. 1 ml of unbuffered physiological saline solution; from tissue; host or cells: isolated whole stomach of immature rats (33-50 g, ca. 21 days old)
T2 sequence (P30553 1-452): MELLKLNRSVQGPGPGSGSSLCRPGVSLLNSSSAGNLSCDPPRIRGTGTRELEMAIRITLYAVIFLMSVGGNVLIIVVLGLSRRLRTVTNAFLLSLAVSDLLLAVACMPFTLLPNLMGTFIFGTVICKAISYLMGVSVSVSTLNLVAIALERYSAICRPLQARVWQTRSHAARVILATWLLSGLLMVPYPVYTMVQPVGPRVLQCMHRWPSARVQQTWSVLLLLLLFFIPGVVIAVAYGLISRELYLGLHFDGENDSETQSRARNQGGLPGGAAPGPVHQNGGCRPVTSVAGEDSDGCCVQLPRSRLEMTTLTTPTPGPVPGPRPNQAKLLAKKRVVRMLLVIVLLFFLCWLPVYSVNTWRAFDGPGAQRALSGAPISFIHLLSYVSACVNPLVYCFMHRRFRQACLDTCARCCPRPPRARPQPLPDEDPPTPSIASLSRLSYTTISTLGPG
Procedure, shortened: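 Isolated stomachs from immature rats (33-50 g, ca. 21 days) perfused at 1 ml min^-1 with O2-gassed unbuffered saline, perfusate pH monitored by electrode. After 120 min stabilisation, compounds added to serosal bath; cumulative pentagastrin dose-response curves begun 60 min later.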

CCKA = target: T3, CCKA (Cavia porcellus, UniProt Q63931); assay: CCKA binding assay in guinea-pig pancreas membranes; settings: [125I]-CCK8(S) 200pM, containing 0.375 µM PD134,308, read-out: CCKA pKi (converted)
T3 construct: The pancreatata were removed from male guinea-pigs (200-300g; Dunkin Hartley); from tissue; host or cells: pancreas membranes of male Dunkin Hartley guinea-pigs
T3 sequence (Q63931 1-430): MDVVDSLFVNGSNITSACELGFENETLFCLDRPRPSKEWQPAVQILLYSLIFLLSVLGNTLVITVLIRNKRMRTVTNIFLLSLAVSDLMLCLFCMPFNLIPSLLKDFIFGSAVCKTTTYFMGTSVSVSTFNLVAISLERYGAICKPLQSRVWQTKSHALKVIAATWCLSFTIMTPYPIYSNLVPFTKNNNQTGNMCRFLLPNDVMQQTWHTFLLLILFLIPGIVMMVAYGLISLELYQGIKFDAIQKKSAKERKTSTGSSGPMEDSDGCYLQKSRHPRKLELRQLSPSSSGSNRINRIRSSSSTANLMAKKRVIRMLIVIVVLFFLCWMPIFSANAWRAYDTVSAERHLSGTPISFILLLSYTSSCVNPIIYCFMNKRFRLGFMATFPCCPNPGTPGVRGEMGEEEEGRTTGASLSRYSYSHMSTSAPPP
Procedure, shortened: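 Competition binding of [125I]-CCK8(S) (200 pM in the added solution) to male guinea-pig pancreas membranes (1 mg/ml wet weight) containing 0.375 µM PD134,308, in HEPES buffer pH 7.2. Incubated 150 min at 21 ± 3°, then filtered. Bound radioactivity gamma-counted; non-specific binding defined with 100nM L-364,718.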

Ki (CCKB receptor) [nM] | Kb (gastrin) [nM] | Ki (CCKA) [nM] | SMILES
50.1 | 63.1 | 1260 | O=C(O)c1cc(NC(=O)[C@@H](Cc2cccs2)NC(=O)C2C3c4ccccc4C(c4ccccc43)C2C(=O)NCC23CC4CC(CC(C4)C2)C3)cc(C(=O)O)c1 (single isomer, unassigned) [Example 21, cis-7-(1R-(3,5-dicarboxyphenylaminocarbonyl)-2-(2-thiophenyl)ethylaminocarbonyl)-8-(1-adamantanemethylaminocarbonyl)-2,3,5,6-dibenzobicyclo[2.2.2]octane]
10 | 6.31 | 2000 | O=C(O)c1cc(NC(=O)[C@H](Cc2ccccc2Cl)NC(=O)C2C3c4ccccc4C(c4ccccc43)C2C(=O)NCC23CC4CC(CC(C4)C2)C3)cc(C(=O)O)c1 (stereo partly drawn) [Example 20, cis-7-(1S-(3,5-dicarboxyphenylaminocarbonyl)-2-(2-chlorophenyl) -ethylaminocarbonyl)-8-(1-adamantanemethylaminocarbonyl) -2,3,5,6-dibenzobicyclo [2.2.2] octane]
